Measurements from patent publication EP4578855A1, “PROLYL HYDROXYLASE INHIBITOR AND USE THEREOF” (Suzhong Pharmaceutical Group Co., Ltd., priority 2022, dated 2024).
pEC50, pIC50: −log10 of the molar value. Values joined by “and” are separate entries in the source; they are usually repeats but may differ in a detail not shown here. Equal values may be shown once. Read-outs that look alike come from different tables or passages of the source.

Tests used:
PHD2 enzyme = target: T1, PHD2 enzyme (Homo sapiens, UniProt Q9GZT9); test: Detection of PHD2 enzyme activity inhibition (FITC-HIF1α tracer, mP read-out); type: biochemical
T1 construct: purchased Active motif
T1 sequence (Q9GZT9 whole entry, species assumed): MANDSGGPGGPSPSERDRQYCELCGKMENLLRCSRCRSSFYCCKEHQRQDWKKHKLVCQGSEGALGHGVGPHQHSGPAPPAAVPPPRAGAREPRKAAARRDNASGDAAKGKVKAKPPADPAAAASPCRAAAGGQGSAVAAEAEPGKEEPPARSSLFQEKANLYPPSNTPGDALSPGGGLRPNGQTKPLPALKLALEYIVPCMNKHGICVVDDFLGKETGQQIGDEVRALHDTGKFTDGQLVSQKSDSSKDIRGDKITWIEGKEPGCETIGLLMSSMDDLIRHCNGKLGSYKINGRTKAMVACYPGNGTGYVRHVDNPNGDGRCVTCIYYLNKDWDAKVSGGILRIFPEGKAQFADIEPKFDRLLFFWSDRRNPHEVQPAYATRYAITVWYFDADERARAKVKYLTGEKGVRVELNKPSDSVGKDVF
Procedure: (1) A 1×Assay buffer was prepared. […] 100 nL of 100% DMSO was added into a negative control well and a positive control well respectively. (3) An enzyme solution with 2 times final concentration was prepared with the 1×Assay buffer. (4) 5 µL of the enzyme solution with 2 times final concentration was added into a compound well and the positive control well respectively. (5) 5 µL of the 1 ×Assay buffer was added into the negative control well. (6) The 384-well plate was centrifuged at 1000 rpm for 30 seconds, oscillated and mixed evenly, and then incubated for 15 minutes. (7) A tracer solution with 2 times final concentration was prepared with the 1×Assay buffer, and 5.0 µL of the tracer solution with 2 times final concentration was added to start the reaction.

[1] = test system: human hepatocarcinoma cell line Hep3B; test: In-vitro erythropoietin (EPO)-inducing activity experiment (EPO ELISA, OD450); type: cell-based; conditions: Homo sapiens, Hep3B cells, incubated 24 hours at 37°C
Procedure: In-vitro erythropoietin (EPO)-inducing activities of the compounds in Embodiments 10 to 12 were evaluated by using a human hepatocarcinoma cell line Hep3B (ATCC). Hep3B cells were cultured in an EMEM medium (Eagle's Minimum Essential Medium) at 37°C in the presence of 10% fetal bovine serum (FBS). Experimental steps were as follows: • (1) Cell preparation: the cells were inoculated in a 96-well plate, and cell plating was carried out according to an amount of 100 µL per well based on 2*10~4 per well. • (2) Preparation of compound concentration gradient: 100 µM, 20 µM, 2-parallel well detection. A solution with 200 times final concentration was prepared in a 96-well plate, the compound was diluted 200/3 times by using a cell culture medium, and then 50 µL of the compound was sucked for drug administration to the cells. 50 µL of DMSO-containing culture solution was added into a negative control well to make a final concentration contain 5 ‰ DMSO, and 50 µL of positive compound with the highest concentration was added into a positive control well to incubate the cells at 37°C for 24 hours. • (3) The reaction plate was washed twice with 1X Wash Buffer according to about 400 µL per well. • (4) 100 µL of diluted standard (comprising a standard blank control) was added into an appropriate well. • (5) 50 µL of sample and 50 µL of Sample Diluent were added into a sample well. • (6) 50 µL of 1X Biotin Conjugated Antibody were added into all wells to incubate the cells at room temperature for 1 hour. • (7) The reaction plate was washed with 1X Wash Buffer for 6 times according to about 400 µL per well. • (8) 100 µL of 1X Streptavidin-HRP was added in to each well to incubate the cells at room temperature for 15 minutes. • (9) The reaction plate was washed with 1X Wash Buffer for 6 times according to about 400 µL per well. • (10) 100 µL of TMB Substrate Solution was added into each well to incubate the cells at room temperature for 10 minutes. • (11) 100 µL of Stop Solution was added into each well. • (12) OD450 was read by EnSight.
The EPO-inducing activities of the compounds were expressed as the concentration for 50% of maximal effect (EC50).

EPO (erythropoietin) = test: Pharmacological evaluation: influence of continuous administration on EPO level; type: in vivo, SD rats
Procedure: This experiment was intended to evaluate an influence of continuous administration of the compounds prepared in Embodiments 12, 13 and 14 on EPO (erythropoietin) in SD rats.
• Line: SD (Sprague Dawley) • Weeks of age and weight: 8 weeks, weight 200 g to 220 g • Sex: male • Animal source: Beijing Vital River Laboratory Animal Technology Co., Ltd.
• Positive drug: Enarodustat • Description: commercialized drugs approved for marketing in Japan • Specification and content: 2 mg JTZ-951(Enarodustat), 140 capsules/box
After a week of adaptive feeding, SD rats were randomly divided into 3 groups, 6 rats in each group, which were namely a blank group, a positive drug group (Enarodustat) and a group of compound in Embodiment 12. An Enarodustat tablet was crushed by a mortar, then quantitatively added with 0.5% methyl cellulose, and magnetically stirred and mixed evenly; and the compound prepared in Embodiment 12 was weighed, then quantitatively added with 0.5% methyl cellulose, and magnetically stirred and mixed evenly. […] The drug was given once a day for 14 consecutive days, and blood was taken to measure an EPO level 4 hours after the drug was given on the 14th day.

[2] = Pharmacokinetic evaluation after intravenous injection or intragastric administration, plasma LC-MS/MS; type: in vivo, SD rats; conditions: male, Sprague-Dawley, rat, plasma, male SD rats
From the text: After the compounds were given to SD rats by intravenous injection or intragastric administration, concentrations of related compounds in plasma were detected by an LC-MS/MS method, and pharmacokinetics and absolute bioavailability of the compounds prepared in Embodiments 13 and 14 in the rats were preliminarily evaluated.
2. Line: Sprague Dawley rats, sex: male, weight: 200 g to 250 g
Pharmacokinetic characteristics of rodents after intravenous injection and oral administration of the compounds were tested by a standard scheme. In the experiment, a candidate compound was prepared into a clear solution, and given to the rats by single intravenous injection and intragastric administration. A solvent for intravenous injection was a certain proportion of N,N-dimethylacetamide (DMA) and 10% Solutol HS15 solution, and a solvent for oral administration was a certain proportion of sodium carboxymethyl cellulose (CMC) suspension. 5 minutes, 15 minutes, 30 minutes, 1 hour, 2 hours, 4 hours, 6 hours, 8 hours, 10 hours and 24 hours after drug administration, blood samples of the animals were respectively collected into K2EDTA anticoagulation tubes, which were temporarily stored on ice until centrifugation.

[3] = test concentration from 10 µM, diluted 3 times into 10 concentrations, read-out: IC50

pIC50 (PHD2 enzyme; [3]) | SMILES | other results
7.47 | O=C(O)CNC(=O)c1c(O)cc(Oc2cccc(N3CCOCC3)c2)n2ncnc12 [Compound in Embodiment 7, (5-(3-morpholinphenoxy)-7-hydroxy-[1,2,4]triazolyl[1,5-a]pyridine-8-carbonyl)glycine] | 
7.33 | O=C(O)CNC(=O)c1c(O)cc(C#Cc2ccccc2)n2ncnc12 [Compound in Embodiment 10, [(7-hydroxy-5-(phenylethynyl)-[1,2,4]triazolo[1,5-a]pyridine-8-carbonyl)amino]acetic acid] | pEC50 ([1]; Hep3B, 24 h): 5.19
7.45 | O=C(O)CNC(=O)c1c(O)cc(Oc2ccc(F)cc2)n2ncnc12 [Compound in Embodiment 8, (5-(4-fluorophenoxy)-7-hydroxy-[1,2,4]triazolyl[1,5-a]pyridine-8-carbonyl)glycine] | 
7.70 | O=C(O)CNC(=O)c1c(O)cc(Oc2ccccc2)n2ncnc12 [Compound in Embodiment 1] | 
7.50 | O=C(O)CNC(=O)c1c(O)cc(C=Cc2ccccc2)n2ncnc12 [Compound in Embodiment 11, [(7-hydroxy-5-(styryl)-[1,2,4]triazolo[1,5-a]pyridine-8-carbonyl)amino]acetic acid] | pEC50 ([1]; Hep3B, 24 h): 5.75
7.46 | O=C(O)CNC(=O)c1c(O)cc(Oc2ccccc2Cl)n2ncnc12 [Compound in Embodiment 2, (5-(2-chlorophenoxy)-7-hydroxy-[1,2,4]triazolyl[1,5-a]pyridine-8-carbonyl)glycine] | 

Second part, the molecule before the results:

SMILES | pIC50 (PHD2 enzyme; [3]) | other results
O=C(O)CNC(=O)c1c(O)cc(Oc2ccc(Cl)cc2)n2ncnc12 [Compound in Embodiment 4, (5-(4-chlorophenoxy)-7-hydroxy-[1,2,4]triazolyl[1,5-a]pyridine-8-carbonyl)glycine] | 7.48 | 
Cc1nc(C(=O)NCC(=O)O)c(O)c2ccc(Oc3ccccc3)cc12 [FG-4592, Roxadustat, reference compound] |  | pEC50 ([1]; Hep3B, 24 h): 4.86
CCCOc1cc(O)c(C(=O)NCC(=O)O)c2ncnn12 [Compound in Embodiment 9, (5-(propoxy)-7-hydroxy-[1,2,4]triazolyl[1,5-a]pyridine-8-carbonyl)glycine] | 7.47 | 
O=C(O)CNC(=O)c1c(O)cc(Oc2cccc(Cl)c2)n2ncnc12 [Compound in Embodiment 3, (5-(3-chlorophenoxy)-7-hydroxy-[1,2,4]triazolyl[1,5-a]pyridine-8-carbonyl)glycine] | 7.52 | 
O=C(O)CNC(=O)c1c(O)cc(CCc2ccccc2)n2ncnc12 [Enarodustat, reference compound] |  | EPO levels in serum of the rats (EPO (erythropoietin); after 14 days of administration, in words): increased significantly; EPO level after 14 days of administration (EPO (erythropoietin); individual rats 1-6, 0.3 mg/mL, 10 mL/kg, once a day for 14 consecutive days, blood 4 hours after the drug on the 14th day, 2904.6 pg/mL was an upper limit of measurement): 452.8 pg/mL and 396.3 pg/mL and 483.2 pg/mL and 404.5 pg/mL and 418.4 pg/mL and 442.3 pg/mL; EPO level after 14 days of administration, Mean (EPO (erythropoietin); mean of 6 rats, 0.3 mg/mL, 10 mL/kg, once a day for 14 consecutive days, blood 4 hours after the drug on the 14th day, 2904.6 pg/mL was an upper limit of measurement): 432.9 pg/mL; AUC ([2]; route and dose not given, read-out: Concentration integral AUC): 11400 ng·h/mL; half-life ([2]; route and dose not given, read-out: Half-life period T1/2 (converted)): 1.12 h; bioavailability ([2]; oral, intragastric vs intravenous, read-out: Bioavailability F): 30.1%; pEC50 [1]: 4.82; pIC50 (PHD2 enzyme): 7.66
Cc1ccc(Oc2cc(O)c(C(=O)NCC(=O)O)c3ncnn23)cc1 [Compound in Embodiment 5, (5-(p-tolyloxy)-7-hydroxy-[1,2,4]triazolyl[1,5-a]pyridine-8-carbonyl)glycine] | 7.36 | 
COc1ccc(Oc2cc(O)c(C(=O)NCC(=O)O)c3ncnn23)cc1 [Compound in Embodiment 6, (5-(p-methoxyphenoxy)-7-hydroxy-[1,2,4]triazolyl[1,5-a]pyridine-8-carbonyl)glycine] | 7.32 | 
